In article PMC10685318, “Trans-cyclosulfamidate mannose-configured cyclitol allows isoform-dependent inhibition of GH47 α-D-mannosidases through a bump–hole strategy” (Chemical Science, 2023):

Target: T1, BtMan2A (Bacteroides thetaiotaomicron, UniProt Q8AAK6)
T1 construct: made in house; donated by Dr. W. Offen, University of York
Assay: 4-MU activity assay for bacterial GH2 β-mannosidase, purified enzyme
Format: biochemical
Method: Trans-Cyclosulfamidate Cyclitols Males et al.
2.3 GH38 α-mannosidases and GH2 β-mannosidase inhibition studies
All chemicals were of analytical grade and purchased from Sigma-Aldrich unless stated otherwise.
Optimal stability of cell homogenates and enzyme working stocks was ensured by preparation and temporary storage on ice. Cell homogenates were prepared and used on the same day. Protein concentrations were quantified using the Pierce BCA Protein Assay Kit (ThermoFisher). Protein samples were measured in clear flat-bottom polystyrene 96 well microplates (Greiner Bio-One) using a EMax Plus Microplate Reader (Molecular Devices). Activity measurements of human GH38 α-mannosidases and bacterial β-mannosidase BtMan2A were performed in black flat-bottom polystyrene 96 wells microplates (Greiner Bio-One) and total fluorescence was measured using a Perkin Elmer LS-55 fluorescence spectrometer at wavelengths λex = 366 and λem = 445 nm, with the signal optimized for medium gain readings. The fluorescence values of each enzyme sample were corrected for the background signal of a blank sample containing no enzyme. In the case of IC50 determinations, values were normalized against a control sample containing enzyme without added inhibitor. […]

T1 sequence (Q8AAK6 entry or part of it, change not shown): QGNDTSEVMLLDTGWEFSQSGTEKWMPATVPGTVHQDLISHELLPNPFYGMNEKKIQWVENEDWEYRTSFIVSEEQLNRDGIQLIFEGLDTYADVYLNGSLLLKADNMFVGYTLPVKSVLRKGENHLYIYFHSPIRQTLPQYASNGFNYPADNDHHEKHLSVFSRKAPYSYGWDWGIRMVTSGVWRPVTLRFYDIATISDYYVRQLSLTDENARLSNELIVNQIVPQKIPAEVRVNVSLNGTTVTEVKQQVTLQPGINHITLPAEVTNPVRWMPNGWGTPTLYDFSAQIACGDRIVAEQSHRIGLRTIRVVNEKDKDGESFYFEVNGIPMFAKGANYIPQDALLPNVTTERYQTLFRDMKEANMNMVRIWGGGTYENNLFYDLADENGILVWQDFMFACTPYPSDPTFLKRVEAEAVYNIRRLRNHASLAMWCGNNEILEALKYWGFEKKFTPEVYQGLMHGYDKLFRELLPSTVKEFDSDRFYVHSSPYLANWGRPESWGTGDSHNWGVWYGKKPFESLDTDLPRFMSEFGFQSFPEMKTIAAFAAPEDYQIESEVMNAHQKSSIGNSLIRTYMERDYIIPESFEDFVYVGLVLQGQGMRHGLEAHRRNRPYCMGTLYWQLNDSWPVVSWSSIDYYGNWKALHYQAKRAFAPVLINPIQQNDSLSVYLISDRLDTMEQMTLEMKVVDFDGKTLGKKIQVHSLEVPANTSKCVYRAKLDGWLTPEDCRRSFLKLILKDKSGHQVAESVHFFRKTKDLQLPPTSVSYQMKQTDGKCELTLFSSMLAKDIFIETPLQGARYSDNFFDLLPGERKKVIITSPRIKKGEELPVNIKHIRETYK

O=S1(=O)N[C@@H]2[C@@H](O)[C@@H](O)[C@H](O)[C@@H](CO)[C@H]2O1 [compound 6, 1,6-trans-manno-cyclosulfamidate]
IC50: > 1 mM
